Experimental data reported in patent US20210070748A1, “INHIBITORS OF BRUTONS TYROSINE KINASE” (Pharmacyclics LLC, priority 2015, published 2021).

Tests used:
Type in all cases: biochemical
BTK-WT = target: T1, BTK-WT (Homo sapiens, UniProt Q06187); assay: Btk in vitro inhibitory activity (one of Method A TR-FRET, Method B electrophoretic mobility shift, Method C radiometric filter binding); conditions: D-compounds panel data; read-out: IC50 BTK-WT
T1 construct: purified from insect cells as a full-length construct containing an N-terminal 6X-His tag; His6 (N); made in house; host or cells: insect cells (baculovirus Sf21 in Method B)
T1 sequence (Q06187 whole entry): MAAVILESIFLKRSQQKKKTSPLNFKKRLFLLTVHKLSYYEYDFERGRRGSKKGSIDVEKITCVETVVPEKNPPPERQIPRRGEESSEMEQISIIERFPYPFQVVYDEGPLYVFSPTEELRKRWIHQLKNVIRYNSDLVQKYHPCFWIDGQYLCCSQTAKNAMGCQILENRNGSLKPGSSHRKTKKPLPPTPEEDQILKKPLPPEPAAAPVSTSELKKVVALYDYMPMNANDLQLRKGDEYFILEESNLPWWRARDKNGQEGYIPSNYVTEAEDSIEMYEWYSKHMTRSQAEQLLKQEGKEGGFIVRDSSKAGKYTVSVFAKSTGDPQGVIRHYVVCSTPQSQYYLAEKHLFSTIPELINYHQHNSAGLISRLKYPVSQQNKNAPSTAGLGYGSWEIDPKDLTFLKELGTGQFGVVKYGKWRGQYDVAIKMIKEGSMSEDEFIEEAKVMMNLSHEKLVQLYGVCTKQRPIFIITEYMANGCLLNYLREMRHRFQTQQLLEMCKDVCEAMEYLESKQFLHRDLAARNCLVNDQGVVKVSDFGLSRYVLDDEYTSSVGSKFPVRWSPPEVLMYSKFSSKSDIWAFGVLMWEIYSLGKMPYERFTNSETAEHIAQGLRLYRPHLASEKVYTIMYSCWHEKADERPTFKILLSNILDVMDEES

ITK = target: T2, ITK (Homo sapiens, UniProt Q08881); assay: Inhibition of a panel of kinases, in vitro HotSpot kinase assay: ITK; conditions: D-compounds panel data; 1 μM ATP
T2 sequence (Q08881 1-620): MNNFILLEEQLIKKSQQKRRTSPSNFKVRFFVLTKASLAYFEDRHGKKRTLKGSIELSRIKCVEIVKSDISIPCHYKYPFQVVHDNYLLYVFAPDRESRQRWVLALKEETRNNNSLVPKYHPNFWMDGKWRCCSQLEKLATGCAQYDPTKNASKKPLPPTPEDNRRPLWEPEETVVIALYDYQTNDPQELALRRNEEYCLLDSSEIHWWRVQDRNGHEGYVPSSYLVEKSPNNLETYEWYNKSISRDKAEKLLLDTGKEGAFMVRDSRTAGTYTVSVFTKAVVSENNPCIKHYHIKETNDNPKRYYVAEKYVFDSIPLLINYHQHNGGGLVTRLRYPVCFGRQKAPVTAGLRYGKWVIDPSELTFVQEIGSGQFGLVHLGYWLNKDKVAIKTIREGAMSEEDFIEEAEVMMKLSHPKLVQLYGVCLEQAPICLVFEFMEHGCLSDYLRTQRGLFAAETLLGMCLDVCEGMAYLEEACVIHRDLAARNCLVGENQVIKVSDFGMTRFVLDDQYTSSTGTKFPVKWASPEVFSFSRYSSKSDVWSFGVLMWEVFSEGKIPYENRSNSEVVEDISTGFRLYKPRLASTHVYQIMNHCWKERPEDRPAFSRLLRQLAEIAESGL
Description: (§1) The degree of inhibition of a panel of kinases is determined using the in vitro HotSpot kinase assay (purified enzymes, ^33P-ATP, an appropriate substrate and 1 μM ATP).

EGFR = EGFR (Homo sapiens, UniProt P00533); assay: Inhibition of a panel of kinases, in vitro HotSpot kinase assay: EGFR; conditions: D-compounds panel data; 1 μM ATP
Sequence of EGFR (P00533 25-1210): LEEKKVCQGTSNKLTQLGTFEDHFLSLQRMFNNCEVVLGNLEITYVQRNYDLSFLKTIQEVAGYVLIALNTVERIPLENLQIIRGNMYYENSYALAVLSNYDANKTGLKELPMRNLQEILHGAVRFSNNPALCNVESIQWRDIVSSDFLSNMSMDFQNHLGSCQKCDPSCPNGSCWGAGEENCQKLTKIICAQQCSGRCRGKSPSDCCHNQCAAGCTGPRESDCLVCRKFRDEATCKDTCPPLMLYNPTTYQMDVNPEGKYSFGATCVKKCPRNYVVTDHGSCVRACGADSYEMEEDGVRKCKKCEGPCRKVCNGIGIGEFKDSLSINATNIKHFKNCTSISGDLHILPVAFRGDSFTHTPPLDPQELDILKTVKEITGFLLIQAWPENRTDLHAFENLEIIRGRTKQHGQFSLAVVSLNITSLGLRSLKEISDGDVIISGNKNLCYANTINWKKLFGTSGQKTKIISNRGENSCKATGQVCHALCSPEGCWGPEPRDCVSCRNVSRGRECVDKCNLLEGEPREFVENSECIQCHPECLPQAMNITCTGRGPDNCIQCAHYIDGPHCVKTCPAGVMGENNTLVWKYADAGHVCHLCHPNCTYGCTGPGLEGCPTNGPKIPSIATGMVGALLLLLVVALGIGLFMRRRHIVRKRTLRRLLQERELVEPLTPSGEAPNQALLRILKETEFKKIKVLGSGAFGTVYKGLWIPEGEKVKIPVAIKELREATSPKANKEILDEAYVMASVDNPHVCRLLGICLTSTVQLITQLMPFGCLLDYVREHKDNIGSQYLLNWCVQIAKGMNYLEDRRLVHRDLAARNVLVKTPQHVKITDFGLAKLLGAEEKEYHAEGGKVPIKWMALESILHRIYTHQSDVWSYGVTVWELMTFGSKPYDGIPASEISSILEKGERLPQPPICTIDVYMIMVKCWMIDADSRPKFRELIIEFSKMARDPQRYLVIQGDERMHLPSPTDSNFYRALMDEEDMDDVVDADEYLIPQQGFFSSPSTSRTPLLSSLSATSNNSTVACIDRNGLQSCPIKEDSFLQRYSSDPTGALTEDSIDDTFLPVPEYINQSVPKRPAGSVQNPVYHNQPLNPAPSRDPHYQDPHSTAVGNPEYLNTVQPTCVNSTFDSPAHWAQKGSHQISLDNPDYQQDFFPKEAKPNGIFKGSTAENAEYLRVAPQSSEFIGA
Description: as §1

SRC = SRC (Homo sapiens, UniProt P12931); assay: Inhibition of a panel of kinases, in vitro HotSpot kinase assay: SRC; conditions: D-compounds panel data; 1 μM ATP
Sequence of SRC (P12931 whole entry): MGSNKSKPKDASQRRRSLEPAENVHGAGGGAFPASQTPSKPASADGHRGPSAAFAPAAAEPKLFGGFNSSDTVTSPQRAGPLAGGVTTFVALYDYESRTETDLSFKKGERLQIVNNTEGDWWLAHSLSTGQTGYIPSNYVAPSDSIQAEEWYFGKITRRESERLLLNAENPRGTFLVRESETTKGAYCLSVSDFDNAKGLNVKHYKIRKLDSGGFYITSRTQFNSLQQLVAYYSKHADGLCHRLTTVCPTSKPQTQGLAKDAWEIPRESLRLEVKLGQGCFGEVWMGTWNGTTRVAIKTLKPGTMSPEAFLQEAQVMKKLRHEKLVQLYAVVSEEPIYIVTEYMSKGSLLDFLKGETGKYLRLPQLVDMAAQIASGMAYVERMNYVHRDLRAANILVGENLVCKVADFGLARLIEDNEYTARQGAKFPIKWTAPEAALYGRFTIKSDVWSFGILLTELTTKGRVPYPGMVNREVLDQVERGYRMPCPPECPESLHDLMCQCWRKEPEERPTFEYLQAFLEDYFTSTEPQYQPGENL
Description: as §1

TEC = target: T3, TEC (Homo sapiens, UniProt P42680); assay: Inhibition of a panel of kinases, in vitro HotSpot kinase assay: TEC; conditions: D-compounds panel data; 1 μM ATP
T3 sequence (P42680 1-631): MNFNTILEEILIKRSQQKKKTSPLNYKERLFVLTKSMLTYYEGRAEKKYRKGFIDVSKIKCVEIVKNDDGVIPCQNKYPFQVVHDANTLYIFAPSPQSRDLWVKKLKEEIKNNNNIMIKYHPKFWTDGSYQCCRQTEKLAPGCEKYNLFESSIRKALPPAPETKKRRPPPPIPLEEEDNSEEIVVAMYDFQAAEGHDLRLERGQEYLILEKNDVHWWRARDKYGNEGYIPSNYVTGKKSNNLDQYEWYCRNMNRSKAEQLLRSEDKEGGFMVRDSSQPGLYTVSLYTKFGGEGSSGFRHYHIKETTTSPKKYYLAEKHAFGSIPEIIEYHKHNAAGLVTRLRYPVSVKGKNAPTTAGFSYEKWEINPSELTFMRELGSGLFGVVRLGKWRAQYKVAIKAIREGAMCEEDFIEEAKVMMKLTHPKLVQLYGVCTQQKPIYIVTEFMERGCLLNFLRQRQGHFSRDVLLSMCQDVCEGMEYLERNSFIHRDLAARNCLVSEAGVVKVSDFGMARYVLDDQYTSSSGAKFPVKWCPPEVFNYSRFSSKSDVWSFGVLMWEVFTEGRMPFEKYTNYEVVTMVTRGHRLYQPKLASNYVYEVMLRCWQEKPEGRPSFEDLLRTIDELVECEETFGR
Description: as §1

SMILES | IC50 (BTK-WT) [nM] | IC50 (ITK) [nM] | IC50 (EGFR) [nM] | IC50 (SRC) [nM] | IC50 (TEC) [nM]
C[C@@H]1CC[C@H](NC(=O)c2ccc(C3CC3)cc2)CN1c1cnc(C(N)=O)c(Nc2ccc(N3CCN(C)CC3)cc2)n1 [Example D-153, 5-[(2R,5S)-5-(4-cyclopropylbenzamido)-2-methylpiperidin-1-yl]-3-{[4-(4-methylpiperazin-1-yl)phenyl]amino}pyrazine-2-carboxamide] | ≤ 10 | 10 to 100 | 100 to 1000 | 10 to 100 | ≤ 10
C[C@H]1CC[C@@H](NC(=O)c2ccc(C3CC3)cc2)CN1c1cnc(C(N)=O)c(Nc2ccc(N3CCN(C)CC3)cc2)n1 [Example D-154, 5-[(2S,5R)-5-(4-cyclopropylbenzamido)-2-methylpiperidin-1-yl]-3-{[4-(4-methylpiperazin-1-yl)phenyl]amino}pyrazine-2-carboxamide] | ≤ 10 | 1000 to 10000 | > 10000 | 100 to 1000 | 100 to 1000
CN(C)c1ccc2c(=O)n([C@@H]3CCCN(c4cnc(C(N)=O)c(Nc5cnn(C)c5)n4)C3)ccc2c1 [Example D-155, 5-[(3R)-3-[6-(dimethylamino)-1-oxo-1,2-dihydroisoquinolin-2-yl]piperidin-1-yl]-3-[(1-methyl-1H-pyrazol-4-yl)amino]pyrazine-2-carboxamide] | ≤ 10 | 100 to 1000 | 1000 to 10000 | 100 to 1000 | 10 to 100
CN(C)c1ccc2c(c1)CCN([C@@H]1CCCN(c3cnc(C(N)=O)c(Nc4cnn(C)c4)n3)C1)C2=O [Example D-156, 5-[(3R)-3-[6-(dimethylamino)-1-oxo-1,2,3,4-tetrahydroisoquinolin-2-yl]piperidin-1-yl]-3-[(1-methyl-1H-pyrazol-4-yl)amino]pyrazine-2-carboxamide] | ≤ 10 | 100 to 1000 | > 10000 | 100 to 1000 | 10 to 100
C[C@H]1CC[C@@H](NC(=O)c2ccc(C(C)(C)O)cc2)CN1c1nnc(C(N)=O)c(Nc2cnn(C)c2)n1 [Example D-157, 3-[(2S,5R)-5-[4-(2-hydroxypropan-2-yl)benzamido]-2-methylpiperidin-1-yl]-5-[(1-methyl-1H-pyrazol-4-yl)amino]-1,2,4-triazine-6-carboxamide] | ≤ 10 | 10 to 100 | 1000 to 10000 | 10 to 100 | ≤ 10
Cc1cc(Nc2nc(N3CCC[C@@H](NC(=O)c4ccc(C(C)(C)O)cc4)C3)cnc2C(N)=O)sn1 [Example D-158, 5-[(3R)-3-[4-(2-hydroxypropan-2-yl)benzamido]piperidin-1-yl]-3-[(3-methyl-1,2-thiazol-5-yl)amino]pyrazine-2-carboxamide] | ≤ 10 | 100 to 1000 | 1000 to 10000 | 100 to 1000 | 10 to 100
Cc1cc(Nc2nc(N3CCC[C@@H](NC(=O)c4ccc(C(C)(C)O)cc4)[C@H]3C)cnc2C(N)=O)sn1 [Example D-159, 5-[(2R,3R)-3-[4-(2-hydroxypropan-2-yl)benzamido]-2-methylpiperidin-1-yl]-3-[(3-methyl-1,2-thiazol-5-yl)amino]pyrazine-2-carboxamide] | ≤ 10 | 100 to 1000 | 100 to 1000 | 10 to 100 | ≤ 10

More lines, now with the values ahead:

IC50 (BTK-WT) [nM] | IC50 (ITK) [nM] | IC50 (EGFR) [nM] | IC50 (SRC) [nM] | IC50 (TEC) [nM] | SMILES
≤ 10 | 100 to 1000 | 100 to 1000 | 10 to 100 | ≤ 10 | C[C@@H]1[C@H](NC(=O)c2ccc(C(C)(C)O)c(F)c2)CCCN1c1cnc(C(N)=O)c(Nc2cnn(C)c2)n1 [Example D-160, 5-[(2R,3R)-3-[3-fluoro-4-(2-hydroxypropan-2-yl)benzamido]-2-methylpiperidin-1-yl]-3-[(1-methyl-1H-pyrazol-4-yl)amino]pyrazine-2-carboxamide]
≤ 10 | 100 to 1000 | 1000 to 10000 | 10 to 100 | ≤ 10 | COC(C)(C)c1ccc(C(=O)N[C@@H]2CCCN(c3cnc(C(N)=O)c(Nc4cnn(C)c4)n3)[C@@H]2C)cc1 [Example D-161, 5-[(2R,3R)-3-[4-(2-methoxypropan-2-yl)benzamido]-2-methylpiperidin-1-yl]-3-[(1-methyl-1H-pyrazol-4-yl)amino]pyrazine-2-carboxamide]
≤ 10 | 100 to 1000 | 100 to 1000 | 10 to 100 | ≤ 10 | C[C@@H]1[C@H](NC(=O)N(C)C)CCCN1c1cnc(C(N)=O)c(Nc2cc(C3CCOCC3)ns2)n1 [Example D-162, 5-[(2R,3R)-3-[(dimethylcarbamoyl)amino]-2-methylpiperidin-1-yl]-3-{[3-(oxan-4-yl)-1,2-thiazol-5-yl]amino}pyrazine-2-carboxamide]
≤ 10 | 10 to 100 | 100 to 1000 | ≤ 10 | 10 to 100 | C[C@@H]1[C@H](NC(=O)N(C)C)CCCN1c1cnc(C(N)=O)c(Nc2cc(C3CCN(C4CCCC4)CC3)ns2)n1 [Example D-163, 3-{[3-(1-cyclopentylpiperidin-4-yl)-1,2-thiazol-5-yl]amino}-5-[(2R,3R)-3-[(dimethylcarbamoyl)amino]-2-methylpiperidin-1-yl]pyrazine-2-carboxamide]
10 to 100 | 1000 to 10000 | 100 to 1000 | 100 to 1000 | 100 to 1000 | Cc1cc(Nc2nc(N3CCCC(c4ncc(-c5ccccc5)[nH]4)C3)cnc2C(N)=O)sn1 [Example D-164, 3-[(3-methyl-1,2-thiazol-5-yl)amino]-5-[3-(4-phenyl-3H-imidazol-2-yl)piperidin-1-yl]pyrazine-2-carboxamide]
≤ 10 | 100 to 1000 | > 10000 | 100 to 1000 | 10 to 100 | CN1CCN(c2ccc(Nc3nc(N4CCC[C@@H](n5ccc6cc(C7CC7)ccc6c5=O)C4)cnc3C(N)=O)cc2)CC1 [Example D-165, 5-[(3R)-3-(6-cyclopropyl-1-oxo-1,2-dihydroisoquinolin-2-yl)piperidin-1-yl]-3-{[4-(4-methylpiperazin-1-yl)phenyl]amino}pyrazine-2-carboxamide]
≤ 10 | > 10000 | > 10000 | > 10000 | > 10000 | Cc1cc(Nc2nc(N3CCC[C@@H](n4ccc5cc(C6CC6)ccc5c4=O)C3)cnc2C(N)=O)sn1 [Example D-166, 5-[(3R)-3-(6-cyclopropyl-1-oxo-1,2-dihydroisoquinolin-2-yl)piperidin-1-yl]-3-[(3-methyl-1,2-thiazol-5-yl)amino]pyrazine-2-carboxamide]
≤ 10 | 100 to 1000 | 1000 to 10000 | 100 to 1000 | 10 to 100 | CN1CCN(Cc2ccc(Nc3nc(N4CCC[C@@H](n5ccc6cc(C7CC7)ccc6c5=O)C4)cnc3C(N)=O)cc2)CC1 [Example D-167, 5-[(3R)-3-(6-cyclopropyl-1-oxo-1,2-dihydroisoquinolin-2-yl)piperidin-1-yl]-3-({4-[(4-methylpiperazin-1-yl)methyl]phenyl}amino)pyrazine-2-carboxamide]
100 to 1000 | > 10000 | > 10000 | > 10000 | 100 to 1000 | NC(=O)c1ncc(N2CCC[C@@H](n3ccc4cc(C5CC5)ccc4c3=O)C2)nc1Nc1ccc2ncccc2c1 [Example D-168, 5-[(3R)-3-(6-cyclopropyl-1-oxo-1,2-dihydroisoquinolin-2-yl)piperidin-1-yl]-3-[(quinolin-6-yl)amino]pyrazine-2-carboxamide]
